From US6562783B2, “Phosphinylmethyl and phosphorylmethyl succinic and glutauric acid analogs as β-secretase inhibitors” (Neurologic, Inc., priority 2001, dated 2003)

Test system: sAPP secretion
Assay: Enhancement of sAPP secretion (immunoblot with 6E10 antibody, densitometry)
Assay type: cell-based, Human
Settings: compound at 10 μM; FIG. 4
Description: Determination of the enhancement of sAPP secretion promoted by LQ-β series of compounds:
Human fibroblasts were obtained from the Coriell Cell Repositories (Camden, N.J.). Four AD cell lines (AG06848, AG04401, AG07377, AG06263) and four age-matched control cell lines (AG07141, AG06241, AG08044, AG04560) were grown to confluence in T75 cell culture flasks. Additional information about these cell lines can be found in the Catalog of Cell Lines from the National Institute of Aging. (National Institute of Aging, Catalog of Cell Lines (1994)). The culture medium was DMEM supplemented with 10% serum (FBS, Gibco). PC12 cells were obtained from the American Cell Culture Collection and grown to confluence in T75 flasks containing DMEM supplemented with 5% FBS (Gibco), 10% horse serum (Biofluids) and 1% of a mixture of penicillin (5,000 units/ml in G sodium) and streptomycin (5,000 μg/ml).
Cells in T-75 were seeded into 100 mm cell culture plates and allowed to grow for 2 days. […]
Conventional immunoblotting techniques were employed. […] Horseradish peroxidase bound signal was detected using an enhanced chemiluminescence followed by exposure to Hyperfilm ECL (Amersham). The band intensities were quantified by densitometric analyses using a BioRad GS-710 Scanning Densitometer and Multianalyst software (BioRad).

With `O=C(O)CC(CP(=O)(O)O)C(=O)N1CCN(C(=O)OCCOc2ccccc2)CC1` (stereo not shown) [LQ-∃1, 4-(2-Carboxymethyl-3-phosphono-propionyl)-piperazine-1-carboxylic acid 2-phenoxy-ethyl ester] the “effect on sAPP secretion compared to vehicle (DMSO) alone” value was “marked effect of enhancing secretion”.
